Laboratory results taken from patent US20230242669A1, “ANTIBODY THAT BINDS ERBB-2 AND ERBB-3” (Merus N.V., priority 2014, published 2023).

Columns and labels:
BT-474 and SKBR-3 cells = assay: BT-474 and SKBR-3 growth in […] with HRG (morphology, PCA); type: cell-based, human
Procedure: The cells were tested at the company Ocello based in Leiden, the Netherlands that grows cells in three dimensional […]® and uses principle component analysis to distinguish non-treated cells from treated cells. 2000 SK-BR-3 or 2250 BT474 cells were seeded in 15µl […]® per well of a 384 well plate (Greiner 781091 ). […] In addition a dose-dependent titration of HRG was included as a positive control. Each dose was tested in quadruplicate. Cells were incubated for 7 days in a cell culture incubator at 37° C., 5% CO2. Next, the cells were fixed and actin cytoskeleton of the cells was stained with phalloidin and the nuclei are stained with Hoechst. Next, fluorescent images were taken at different levels through the gel (Z-stack) and the images were superimposed. A broad range of morphological features were measured (800 in total). Only features that differed between medium and HRG treatments were selected for analysis. […] Both multiparameter and single parameter analyses were made. For single parameter measurements, t-tests were performed to compare treatments (HRG or antibody) to medium. P-values for each point were determined. […]
The assay was performed in […]®, as described above, and morphological features were analyzed. […]

JIMT-1 tumor = assay: JIMT-1 xenograft study; type: in vivo, CB.17 SCID mice; settings: 2.5 and 25 mg/kg ip qwk × 4
Procedure: JIMT-1 human breast carcinoma cells were grown in DMEM containing 10% fetal bovine serum, 100 units/mL penicillin G sodium, 100 µg/mL streptomycin sulfate, 25 µg/mL gentamicin, and 2 mM glutamine until the time of implantation. At the day of implantation JIMT-1 breast cells were harvested during log phase growth and resuspended in cold PBS. […] Each mouse was injected subcutaneously in the right flank with 5 ×10^6 tumor cells (0.2 mL cell suspension). The tumors were measured with a caliper in two dimensions to monitor size as the mean volume twice per week. Once tumors had reached approximately 100-150 mm^3 in size animals were enrolled in the efficacy study. Outlier animals -tumor volume - were removed and the mice were randomly distributed into groups of 10 mice each. Mice were injected once weekly (antibody) or daily (lapatinib) for a period of four weeks. Details of the treatment groups are depicted in Table 11.
Tumor sizes were measured weekly by caliper measurement.

[1] = system: human stem cell derived cardiomyocytes; assay: Cardiomyocyte viability under doxorubicin stress; type: cell-based; settings: 3 µM doxorubicin, 10 ng/ml HRG; monospecific antibodies 68 nM
Procedure: Human stem cell derived cardiomyocytes (Pluriomics BV) were seeded at a concentration of 20.000 well in white flat-bottom assay plates (corning 655098). On day 5 of culture the medium was replaced for glucose and galactose free culture medium supplemented with 10 ng/ml HRG. On day 7 test antibodies were added in combination with doxorubicin (3 µM). Cell viability was assayed on day 9 using the Promega Cell titer Glo assay.

[2] = system: HER2:HER3 signaling in JIMT-1 tumors; assay: VeraTag analysis of JIMT-1 tumors; type: in vivo, mice
Procedure: Next, samples were paraffin-embedded. Sections of 7 um in thickness were sliced with a microtome (LEICA) and placed on positively charged glass slides (VWR) with serial number labeled. Slides were air-dried for 30 min and then baked in a heated oven set at 60° C. Next samples were processed for different VeraTag analysis. Total HER2 analysis (HT2) according to U.S. Pat. Appl. No. 12/340,436, total HER3 analysis (H3T) according to U.S. Pat. No. 8,349,574; U.S. Pat. Appl. No. 2013/0071859 and finally HER2-HER3 heterodimer (H23D), HER3pY1289 (H3pY1289) and HER3-PI3 kinase (H3PI3K) according to Int′l Patent Appl. No. PCT/US2014/033208.

## PB4188: bispecific HER2xHER3 IgG: HER2 arm MF3958, HER3 arm MF3178
BT-474 and SKBR-3 cells; BT-474 and SKBR-3, in the presence of HRG
  Activity compared to pertuzumab + trastuzumab, PB3448 and MEHD7945A: superior activity
BT-474 and SKBR-3 cells; SKBR-3, 10 ng/ml HRG
  Effect on HRG induced proliferation and branching/invasion phenotype: completely revert the HRG induced phenotype
JIMT-1 tumor
  Efficacy on tumor size: more potent than lapatinib or the combination pertuzumab and trastuzumab
[1]
  Cardiomyocyte viability (ATP): unaffected
[2]; 25 mg/kg
  Total HER2, HER3 or phosphorylated HER3 in tumors versus controls: no difference
[2]; 25 mg/kg, both dosing regimens
  HER2:HER3 dimers in tumors versus untreated controls: significant PB4188 mediated reduction in HER2:HER3 dimers
[2]; 4H after dosing
  HER3-p85 (PI3K) in tumors versus untreated controls: significant reduction in HER3-p85 (PI3K)
